Consider 21 compounds from patent publication US20240228927A1, “MICROFLUIDIC PLATFORM FOR DETECTION OF LIVER INJURY” (Javelin Biotech, Inc., priority 2023, published 2024).

A word on the Cmax: it is the maximum level reached in the sampled fluid or tissue.

One series relates to in vitro liver tissue. As to the kind of experiment: mitochondrial stress test: on-chip oxygen consumption rate (OCR) of liver tissue. It is filed as cell-based, human. Conditions: oligomycin 1 μM, FCCP 0.3 μM, rotenone 1 μM with antimycin A 0.5 μM, 30 min each; matured tissue on chip.
Source text: The microfluidic chip 100 and control system perform measurements of the oxygen consumption rate of in vitro liver tissue as a readout of mitochondrial function.
Oxygen sensing is achieved by combining a disposable oxygen sensor spot with an oxygen sensing meter. The meter provides an optical excitation signal to the sensor spot and measures the emitted light from the sensor spot. The light emitted by the sensor spot is influenced by a partial pressure of oxygen in fluid in contact with the sensor spot. Two sensor spots are placed in the primary flow path either side of the tissue culture area to measure the oxygen consumption of the tissue. The meters in the control module are placed such that they can measure the oxygen sensor values during normal operation.
The microfluidic chip 100 performs quantification of cellular respiration to assess mitochondrial function. […] To assess the sensitivity of the oxygen sensors 124a-b and on-chip OCR estimates, the microfluidic chip 100 performs a mitochondrial stress test. After cells are seeded on chips (e.g., 4 per treatment), tissue is matured (˜5-7 days), and basal OCR is established, oligomycin (1 μM & 30 min), which blocks proton translocation through complex V and represses ATP and OCR, are administered to the chips and OCR are assessed continuously. […] The oxygen sensors 124a-b read oxygen levels on the fluid path before and after the cell chamber. The inlet readout represents oxygenated media levels leaving the reoxygenation channel and the outlet readout reflects oxygen-depleted media due oxygen consumption of liver tissue. The continuous readouts are captured and recorded by the controller 114 of the microfluidic chip 100.
Take `C=C(C)[C@H]1Cc2c(ccc3c2O[C@@H]2COc4cc(OC)c(OC)cc4[C@@H]2C3=O)O1` [Rotenone, rotenone]: the “OCR (oxygen consumption rate)” value is “complete reduction in OCR”.

Regarding FCCP, the “OCR (oxygen consumption rate)” value is “increases OCR to its maximum level”.

With `CC[C@H]1/C=C/C=C/C[C@@H](C)[C@H](O)[C@@](C)(O)C(=O)[C@@H](C)[C@H](O)[C@@H](C)C(=O)[C@@H](C)[C@H](O)[C@@H](C)/C=C/C(=O)O[C@@H]2[C@H](C)[C@H](CC1)O[C@]1(CC[C@H](C)[C@H](C[C@@H](C)O)O1)[C@H]2C` [oligomycin], the “OCR (oxygen consumption rate)” value is “decreased OCR values, but non-zero values”.

System in another series: not given
Test: not given
The settings on record: clinically observed, human plasma; cited from earlier work.
As to `O=C(O)Cc1ccccc1Nc1c(Cl)cccc1Cl` [Diclofenac], the Cmax was 4 to 10 µM.

The next series has as its system liver.
Test: not given
Conditions: BSEP / mitochondrial toxicity relative to the paired liver toxicant; cited from earlier work.
As for `O=C1CC2(CCCC2)CC(=O)N1CCCCN1CCN(c2ncccn2)CC1` [Buspirone], the Comparator characteristic result is recorded as “Less BSEP”.

Staying with this series, now noted: in vivo; cited from earlier work.
Take Mipomersen: the “DILI presentation (Liver toxicant)” value was “ALT elevations” and the Mechanism of toxicity result is recorded as “Lipid”.

Regarding `O=c1[nH]c(=O)n(C2OC(CO)C(O)C2F)cc1I` (stereo not shown) [FIRU], the “DILI presentation (Less toxic comparator)” value is reported as “No DILI”.

Take `N[C@@H]1[C@H]2CN(c3nc4c(cc3F)c(=O)c(C(=O)O)cn4-c3ccc(F)cc3F)C[C@@H]12` [Trovafloxacin]: the “DILI presentation (Liver toxicant)” value is “Acute liver”.

The same series, now with this note: less toxic comparator of Table 1; cited from earlier work.
As to `O=C1CC2(CCCC2)CC(=O)N1CCCCN1CCN(c2ncccn2)CC1` [Buspirone], the “DILI presentation (Less toxic comparator)” value is “No/low”.

For the compound `CCc1ccc(CCOc2ccc(CC3SC(=O)NC3=O)cc2)nc1` (stereo not shown) [Pioglitazone], the “DILI presentation (Less toxic comparator)” value is “Low DILI”.

On to `CCN(CC)C(=O)/C(C#N)=C/c1cc(O)c(O)c([N+](=O)[O-])c1` [Entacapone], for which the “DILI presentation (Less toxic comparator)” value was “Low DILI”.

Consider `Cc1cc2c(s1)Nc1ccccc1N=C2N1CCN(C)CC1` [Olanzapine], for which the “DILI presentation (Less toxic comparator)” value is reported as “No DILI”.

`COC(c1ccccc1)(c1ccccc1)[C@H](Oc1nc(C)cc(C)n1)C(=O)O` [Ambrisentan]: the “DILI presentation (Less toxic comparator)” value is on record as “Minimal”.

Staying with this series, now noted: liver toxicant of Table 1; cited from earlier work.
In the case of `CC(c1cc2ccccc2s1)N(O)C(N)=O` (stereo not shown) [Zileuton], the “DILI presentation (Liver toxicant)” value is on record as “ALT elevations” and the Mechanism of toxicity entry was “Reactive”.

With `O=c1[nH]c(=O)n([C@@H]2O[C@H](CO)[C@@H](O)[C@@H]2F)cc1I` [Fialuridine], the “DILI presentation (Liver toxicant)” value is on record as “Liver failure” and the Mechanism of toxicity result is reported as “Mitochondrial”.

Regarding `Cc1c(C)c2c(c(C)c1O)CCC(C)(COc1ccc(CC3SC(=O)NC3=O)cc1)O2` (stereo not shown) [Troglitazone], the “DILI presentation (Liver toxicant)” value was “ALT, bilirubin” and the Mechanism of toxicity result is listed as “Reactive”.

In the case of `CCc1nn(CCCN2CCN(c3cccc(Cl)c3)CC2)c(=O)n1CCOc1ccccc1` [Nefazodone], the “DILI presentation (Liver toxicant)” value is on record as “Liver failure” and the Mechanism of toxicity result is given as “Reactive”.

In the case of `Cc1ccc(C(=O)c2cc(O)c(O)c([N+](=O)[O-])c2)cc1` [Tolcapone], the “DILI presentation (Liver toxicant)” value is reported as “ALT elevations;” and the Mechanism of toxicity entry is on record as “Reactive”.

For `C=C[C@@H]1C[C@]1(NC(=O)[C@@H]1C[C@@H](Oc2ncc(OC)c3ccc(Cl)cc23)CN1C(=O)[C@@H](NC(=O)OC(C)(C)C)C(C)(C)C)C(=O)NS(=O)(=O)C1CC1` [Asunaprevir], the “DILI presentation (Liver toxicant)” value is listed as “ALT elevations”.

Consider `CC[C@H]1OC(=O)[C@H](C)C(=O)[C@H](C)[C@@H](O[C@@H]2O[C@H](C)C[C@H](N(C)C)[C@H]2O)[C@](C)(OC)C[C@@H](C)C(=O)[C@H](C)[C@H]2N(CCCCn3cnc(-c4cccnc4)c3)C(=O)O[C@]12C` [Telithromycin], for which the “DILI presentation (Liver toxicant)” value is reported as “ALT elevations” and the Mechanism of toxicity entry is given as “Bile acid”.

Regarding `CN1CCN(C2=Nc3cc(Cl)ccc3Nc3ccccc32)CC1` [Clozapine], the Mechanism of toxicity result is on record as “Reactive”.

Take `N[C@@H]1[C@H]2CN(c3nc4c(cc3F)c(=O)c(C(=O)O)cn4-c3ccc(F)cc3F)C[C@@H]12` [Trovafloxacin]: the Mechanism of toxicity result is “Immune-”.

For `Cc1cc2c(cc1CC(=O)c1sccc1S(=O)(=O)Nc1onc(C)c1Cl)OCO2` [Sitaxsentan], the “DILI presentation (Liver toxicant)” value is “ALT elevations” and the Mechanism of toxicity entry is given as “Reactive”.
